Test results published in patent US4225619A, “Substituted fluoracylresorcinols” (Boehringer Ingelheim GmBH, priority 1976, dated 1980).
Values after ≈ are worked out from the molar mass of the structure shown.

Tests used:
Assay type in all cases: cell-based
[1] = tested on: Streptococcus pyogenes At CC 86 68; assay: Serial dilution test; conditions: for MIC: Streptococcus pyogenes, ATCC8668, 18-20 hours at 37° C., read-out: MIC, S.D.T., Streptococcus pyogenes
Experimental: (§1) The inhibitory effect on bacteria and fungi was examined by the serial dilution test and the agar diffusion test (hole-test). As bacteria were used: Staphylococcus aureus SG 511, Streptococcus Aronson, Streptococcus pyogenes At CC 86 68; as fungi: Candida albicans AT CC 10231, Trichophyton mentagrophytes AT CC 9129 and Aspergillus niger.
(§2) 2. Glucose broth: for Sc. Aronson and St. pyogenes Recipe see meat extract broth. After sterilization 1 weight percent of glucose is added as a sterile 50% solution.
(§3) The age of the primary cultures is 24 hours for bacteria and 14 days for fungi. The standardization of the suspension of microorganisms is effected using a photometer according to Eppendorf (test tube .phi.14 mm, filter 546 nm) and a suspension for comparison consisting of barium sulfate, this suspension being created by adition of 3.0 ml of 1% barium chloride solution to 97 ml of 1% sulfuric acid. After the standardization the bacteria were further diluted to a concentration of 1:1000 by means of sodium chloride solution, the fungi were used in an undiluted state.
(§4) 40 mgm of the substance were put into a 10 ml measuring flask and filled up to the mark with the solvent (corresponds to a dilution of 1:250=4000 μg/ml). The further dilution series was standardized with distilled water or the respective solvent and the following substance concentrations were prepared: 1000; 250; 62.5 μg/ml.
(§5) The tubes were filled with 4.9 ml of the corresponding liquid nutrient medium. Then 0.1 ml of the substance dilution prepared above was added to each tube, so that the mentioned final concentrations were present. Finally each tube was inoculated with 0.1 ml of the standardized suspension of microorganisms. Control tests merely using the solvent are to be carried out simultaneously.
(§6) Bacteria were incubated at 37° C. for 18-20 hours and fungi at 27° C. for 7 days.
(§7) The measurement is carried out macroscopically defining the minimal inhibitory concentration (the lowest still microbiostatically effective concentration).

[2] = tested on: Streptococcus Aronson; assay: Serial dilution test; conditions: for MIC: Streptococcus, 18-20 hours at 37° C., read-out: MIC, S.D.T., Streptococcus Aronson
Experimental: as §1, §2, §3, §4, §5, §6, §7

[3] = tested on: Staphylococcus aureus SG 511; assay: Serial dilution test; conditions: for MIC: Staphylococcus aureus, SG511, 18-20 hours at 37° C., read-out: MIC, S.D.T., Staphylococcus aureus SG 511
Experimental: as §1
1. Meat extract broth: for St. aureus SG 511
as §3, §4, §5, §6, §7

[4] = tested on: Corynebacterium acnes; assay: Serial dilution test for Corynebacterium acnes; conditions: for MIC: Cutibacterium acnes, 37° C. for 48 hours, read-out: MIC, S.D.T., Corynebacterium acnes; for Concentration with reduced growth (value in brackets), S.D.T., Corynebacterium acnes: reduced growth at this concentration
Experimental: Serial dilution test for Corynebacterium acnes and Pityrosporum ovale Nutrient medium
For Corynebacterium acnes: thioglycolate-broth for Pityrosporum ovale: Littmann's broth, 5 ml per tube.
Suspension of microorganisms in 0.9% sodium chloride solution, standardized using a photometer according to Eppendorf by means of a suspension for comparison consisting of barium sulfate, for Corynebacterium acnes in a dilution of 1:100, for Pityrosporum ovale in an undiluted state. 0.1 ml of the suspensions was used per test tube. Dimethyl sulfoxide served as a solvent for the substances.
The suspension with Corynebacteria acnes was incubated at 37° C. for 48 hours, the suspension of Pityrosporum ovale at 27° C. for 7 days. The reading was effected by macroscopic evaluation of the growth of microorganisms and registration of the minimal inhibitory concentration.

[5] = tested on: HeLa-cell culture; assay: Inhibition of HeLa cell cultures; conditions: Homo sapiens, 72 h, 37° C. for 3 days, 5% carbon dioxide; for IC50: read-out: ED50, HeLa cell culture; for minimal effective concentration: read-out: Minimal inhibitory concentration, HeLa cell culture
Experimental: Measurement of the inhibition of cell cultures
HeLa-cell culture was treated with trypsin and adjusted to a cell number of 150,000 cells/ml of fresh medium. The substance was always dissolved in the same quantity of dimethyl sulfoxide and then further diluted with growth medium. 0.1 ml of the substance-dilutions were added to each well of microtiter plates and then 0.2 ml of cell suspension were added (4 wells per dilution). Several growth controls containing 0.1 ml of growth medium instead of 0.1 ml of substance dilution were put up. After careful mixing, the cultures were incubated at 37° C. for 3 days in a 5% carbon dioxide atmosphere. The reading was effected in comparison with these controls. The results were given as the percentage of the deficiency and degeneration compared to the growth control. […] The statements are referred to μg of substance per ml of total medium.

[6] = tested on: Streptococcus pyogenes At CC 86 68; assay: Agar diffusion test (hole-test); conditions: ATCC8668, 18-20 hours at 37° C., read-out: MIC, A.D.T., Streptococcus pyogenes
Experimental: as §1
(§8) 2. Glucose agar: for Sc. Aronson and St. pyogenes Recipe see meat extract agar. After sterilization 1 weight percent of glucose is added as a sterile 50% solution.
(§9) The age of the primary cultures is 24 hours for bacteria and 14 days for fungi. The standardization of the suspension of microorganisms is effected using a photometer according to Eppendorf (test tube .phi.14 mm, filter 546 nm) and a suspension for comparison consisting of barium sulfate, this suspension being created by addition of 3.0 ml of 1% barium chloride solution to 97 ml of 1% sulfuric acid. After the standardization St. aureus SG 511 was diluted 1:1000 and Sc. pyogenes and Aronson 1:100 by means of sodium chloride solution. The fungi were used in an undiluted state.
(§10) 40 mgm of the substance were put into a 10 ml measuring flask and filled up to the mark with the solvent (corresponds to a dilution of 1:250=4000 μg/ml).
(§11) The dilutions to the concentrations under test were effected with distilled water or the respective solvent.
(§12) 19 ml of the nutrient medium were filled into sterile Petri dishes of a diameter of 8 cm and dried. Subsequently the agar plates were charged with 4 ml of seed agar. 100 ml of seed agar contain 1.25 ml of the suspension of microorganisms, an agar plate thus containing 0.05 ml of the suspension of microorganisms. After solidification of the agar, 5 holes of a diameter of 5 mm were punched into the plates and filled with 0.05 ml of the correspondingly concentrated substance solution.
(§13) Control tests merely using the solvent are to be carried out simultaneously.
as §6
(§14) The diameter of the area of inhibition in mm was measured after having deducted the diameter of the hole.

[7] = tested on: Streptococcus Aronson; assay: Agar diffusion test (hole-test); conditions: 18-20 hours at 37° C., read-out: MIC, A.D.T., Streptococcus Aronson
Experimental: as §1, §8, §9, §10, §11, §12, §13, §6, §14

[8] = tested on: Staphylococcus aureus SG 511; assay: Agar diffusion test (hole-test); conditions: SG511, 18-20 hours at 37° C., read-out: MIC, A.D.T., Staphylococcus aureus SG 511
Experimental: as §1
1. Meat extract agar: for St. aureus SG 511
as §9, §10, §11, §12, §13, §6, §14

[9] = reduced growth at this concentration

MIC [1] | MIC [2] | MIC [3] | MIC [4] | IC50 [5] | MIC [6] | MIC [7] | MIC [8] | SMILES | minimal effective concentration [5] | Concentration with reduced growth (value in brackets), S.D.T., Streptococcus pyogenes [1, 9] | Concentration with reduced growth (value in brackets), S.D.T., Staphylococcus aureus SG 511 [3, 9] | Concentration with reduced growth (value in brackets), S.D.T., Corynebacterium acnes [4] | Concentration with reduced growth (value in brackets), S.D.T., Streptococcus Aronson [2, 9]
0.31 µg/mL (≈ 1.12 µM) | 1.25 µg/mL (≈ 4.52 µM) | 0.31 µg/mL (≈ 1.12 µM) | 1.25 µg/mL (≈ 4.52 µM) | 5.8 µg/mL (≈ 21 µM) | ≤ 15.6 µg/mL | ≤ 15.6 µg/mL | ≤ 15.6 µg/mL | CC(C)CCc1cc(C(=O)C(F)(F)F)c(O)cc1O [G, 2,4-Dihydroxy-5-iso-pentyl-trifluoroacetophenone] | 0.78 µg/mL |  |  |  | 
1.25 µg/mL (≈ 3.76 µM) | 5 µg/mL (≈ 15 µM) | 5 µg/mL (≈ 15 µM) | 0.02 µg/mL (≈ 0.0602 µM) |  | ≤ 15.6 µg/mL | ≤ 15.6 µg/mL | ≤ 15.6 µg/mL | CCCCCCCCCc1cc(C(=O)C(F)(F)F)c(O)cc1O [J, 2,4-Dihydroxy-5-n-nonyl-trifluoroacetophenone] |  | 0.08 µg/mL | 1.25 µg/mL |  | 
0.31 µg/mL (≈ 1.07 µM) | 1.25 µg/mL (≈ 4.31 µM) | 1.25 µg/mL (≈ 4.31 µM) | 0.08 µg/mL (≈ 0.276 µM) | 2.27 µg/mL (≈ 7.82 µM) | ≤ 15.6 µg/mL | ≤ 15.6 µg/mL | ≤ 15.6 µg/mL | CCCCC(C)c1c(O)ccc(C(=O)C(F)(F)F)c1O (centres unmarked) [K] | 0.78 µg/mL |  |  |  | 
1.25 µg/mL (≈ 3.61 µM) | 20 µg/mL (≈ 57.7 µM) | 1.25 µg/mL (≈ 3.61 µM) | 0.31 µg/mL (≈ 0.895 µM) |  | ≤ 15.6 µg/mL | ≤ 15.6 µg/mL | 250 µg/mL (≈ 722 µM) | CCCCCCCCC(C)c1c(O)ccc(C(=O)C(F)(F)F)c1O (centres unmarked) [M] |  |  |  |  | 1.25 µg/mL
0.31 µg/mL (≈ 1.13 µM) | 1.25 µg/mL (≈ 4.56 µM) | 1.25 µg/mL (≈ 4.56 µM) | 0.31 µg/mL (≈ 1.13 µM) | 5.32 µg/mL (≈ 19.4 µM) | 62.5 µg/mL (≈ 228 µM) | ≤ 15.6 µg/mL | ≤ 15.6 µg/mL | O=C(c1ccc(O)c(C2CCCC2)c1O)C(F)(F)F [N, 2,4-Dihydroxy-3-cyclopentyl-trifluoroacetophenone] | 3.13 µg/mL |  |  |  | 
0.08 µg/mL (≈ 0.265 µM) | 0.31 µg/mL (≈ 1.03 µM) | 0.31 µg/mL (≈ 1.03 µM) | 1.25 µg/mL (≈ 4.14 µM) |  | ≤ 15.6 µg/mL | ≤ 15.6 µg/mL | ≤ 15.6 µg/mL | O=C(c1ccc(O)c(C2CCCCCC2)c1O)C(F)(F)F [O, 2,4-Dihydroxy-3-cycloheptyl-trifluoroacetophenone] |  |  |  | 0.31 µg/mL | 

The next lines start with the compound.

SMILES | MIC [1] | MIC [2] | MIC [3] | MIC [4] | IC50 [5] | MIC [6] | MIC [7] | MIC [8] | minimal effective concentration [5] | Concentration with reduced growth (value in brackets), S.D.T., Streptococcus pyogenes [1, 9] | Concentration with reduced growth (value in brackets), S.D.T., Staphylococcus aureus SG 511 [3, 9] | Concentration with reduced growth (value in brackets), S.D.T., Corynebacterium acnes [4] | Concentration with reduced growth (value in brackets), S.D.T., Streptococcus Aronson [2, 9]
CC1CC(C)CC(c2cc(C(=O)C(F)(F)F)c(O)cc2O)C1 (centres unmarked) [I, 2,4-Dihydroxy-5-(3',5'-dimethyl)-cyclohexyl-tri-fluoroacetophenone] | 0.31 µg/mL (≈ 0.98 µM) | 0.08 µg/mL (≈ 0.253 µM) | 0.31 µg/mL (≈ 0.98 µM) | 0.08 µg/mL (≈ 0.253 µM) |  | ≤ 15.6 µg/mL | ≤ 15.6 µg/mL | ≤ 15.6 µg/mL |  |  |  |  | 
O=C(c1ccc(O)c(C2CCCCCCCCCCC2)c1O)C(F)(F)F [L, 2,4-Dihydroxy-3-cyclododecyl-trifluoroacetophenone] | 0.08 µg/mL (≈ 0.215 µM) | 0.31 µg/mL (≈ 0.832 µM) | 0.31 µg/mL (≈ 0.832 µM) | 1.25 µg/mL (≈ 3.36 µM) |  | 62.5 µg/mL (≈ 168 µM) | ≤ 15.6 µg/mL | 62.5 µg/mL (≈ 168 µM) |  |  |  | 0.31 µg/mL | 
CCc1cc(C(=O)C(F)(F)F)c(O)c(Cc2c(O)c(CC)cc(C(=O)C(F)(F)F)c2O)c1O [R, Methylene-bis-(2,6-dihydroxy-3-ethyl-5-trifluoro-acetyl)-benzene] | 0.005 µg/mL (≈ 0.0104 µM) | 0.31 µg/mL (≈ 0.645 µM) | 0.08 µg/mL (≈ 0.167 µM) | 0.005 µg/mL (≈ 0.0104 µM) |  | ≤ 15.6 µg/mL | ≤ 15.6 µg/mL | ≤ 15.6 µg/mL |  |  |  |  | 
Cc1c(O)c(Cc2cc(C(=O)C(F)(F)F)c(O)c(C)c2O)cc(C(=O)C(F)(F)F)c1O [S, Methylene-bis-(2,4-dihydroxy-3-methyl-5-trifluoro-acetyl)-benzene] | 1.25 µg/mL (≈ 2.76 µM) | 1.25 µg/mL (≈ 2.76 µM) | 1.25 µg/mL (≈ 2.76 µM) | 0.31 µg/mL (≈ 0.685 µM) | 3.8 µg/mL (≈ 8.4 µM) | ≤ 15.6 µg/mL | ≤ 15.6 µg/mL | ≤ 15.6 µg/mL | ≤ 0.78 µg/mL |  |  |  | 
